Data from the NIST ThermoML archive (doi:10.1021/je1000582).
± gives the expanded uncertainty stated by the source.

Experiment: activity coefficient (dimensionless); of the first substance listed, at infinite dilution; xn = mol fraction of the nth substance listed
Conditions: 101 kPa, Liquid, Chromatography, x1 = 0

SMILES	activity coefficient (318.15 K)	activity coefficient (328.15 K)	activity coefficient (338.15 K)	activity coefficient (348.15 K)	activity coefficient (358.15 K)	activity coefficient (308.15 K)
Cc1ccccc1C [1,2-dimethylbenzene] + CCCC[n+]1cccc(C)c1.O=S(=O)([O-])C(F)(F)F	2.16 ± 0.15	2.2 ± 0.15	2.25 ± 0.15	2.29 ± 0.16	2.33 ± 0.16	
Cc1cccc(C)c1 [1,3-dimethylbenzene] + CCCC[n+]1cccc(C)c1.O=S(=O)([O-])C(F)(F)F	2.57 ± 0.17	2.62 ± 0.18	2.67 ± 0.18	2.71 ± 0.18	2.76 ± 0.19	
Cc1ccc(C)cc1 [1,4-dimethylbenzene] + CCCC[n+]1cccc(C)c1.O=S(=O)([O-])C(F)(F)F	2.46 ± 0.17	2.52 ± 0.17	2.57 ± 0.17	2.62 ± 0.18	2.68 ± 0.18	
CC(C)=O [acetone] + CCCC[n+]1cccc(C)c1.O=S(=O)([O-])C(F)(F)F	0.752 ± 0.049	0.762 ± 0.05	0.77 ± 0.05	0.776 ± 0.051	0.783 ± 0.051	0.743 ± 0.049
c1ccccc1 [benzene] + CCCC[n+]1cccc(C)c1.O=S(=O)([O-])C(F)(F)F	1.23 ± 0.08	1.25 ± 0.08	1.27 ± 0.08	1.29 ± 0.08	1.31 ± 0.09	1.2 ± 0.08
C1CCCCCC1 [cycloheptane] + CCCC[n+]1cccc(C)c1.O=S(=O)([O-])C(F)(F)F	15.4 ± 1.1	14.6 ± 1	13.8 ± 0.9	13.2 ± 0.9	12.5 ± 0.9	16.4 ± 1.1
C1CCCCC1 [cyclohexane] + CCCC[n+]1cccc(C)c1.O=S(=O)([O-])C(F)(F)F	12.4 ± 0.8	11.7 ± 0.8	11.1 ± 0.8	10.6 ± 0.7	10.1 ± 0.7	13.2 ± 0.9
C1CCCCCCC1 [cyclooctane] + CCCC[n+]1cccc(C)c1.O=S(=O)([O-])C(F)(F)F	19.8 ± 1.4	18.6 ± 1.3	17.5 ± 1.2	16.5 ± 1.1	15.7 ± 1.1	
C1CCCC1 [cyclopentane] + CCCC[n+]1cccc(C)c1.O=S(=O)([O-])C(F)(F)F	8.89 ± 0.61	8.51 ± 0.58	8.15 ± 0.56	7.8 ± 0.53	7.54 ± 0.51	9.4 ± 0.64
CCOCC [diethyl ether] + CCCC[n+]1cccc(C)c1.O=S(=O)([O-])C(F)(F)F	4.24 ± 0.29	4.18 ± 0.28	4.14 ± 0.28	4.1 ± 0.28	4.07 ± 0.28	4.29 ± 0.29
CO [methanol] + CCCC[n+]1cccc(C)c1.O=S(=O)([O-])C(F)(F)F	0.642 ± 0.044	0.617 ± 0.043	0.592 ± 0.042	0.57 ± 0.041	0.551 ± 0.04	
C1CCOC1 [tetrahydrofuran] + CCCC[n+]1cccc(C)c1.O=S(=O)([O-])C(F)(F)F	1.2 ± 0.08	1.21 ± 0.08	1.23 ± 0.08	1.24 ± 0.08	1.25 ± 0.08	1.19 ± 0.08
c1ccsc1 [thiophene] + CCCC[n+]1cccc(C)c1.O=S(=O)([O-])C(F)(F)F	0.898 ± 0.057	0.919 ± 0.058	0.937 ± 0.059	0.955 ± 0.06	0.972 ± 0.061	
Cc1ccccc1 [toluene] + CCCC[n+]1cccc(C)c1.O=S(=O)([O-])C(F)(F)F	1.76 ± 0.12	1.79 ± 0.12	1.82 ± 0.12	1.85 ± 0.12	1.88 ± 0.13	
O [water] + CCCC[n+]1cccc(C)c1.O=S(=O)([O-])C(F)(F)F	0.89 ± 0.057	0.857 ± 0.055	0.82 ± 0.053	0.789 ± 0.051	0.765 ± 0.05	

Now from value to molecule:

activity coefficient (318.15 K)	activity coefficient (328.15 K)	activity coefficient (338.15 K)	activity coefficient (348.15 K)	activity coefficient (358.15 K)	activity coefficient (308.15 K)	SMILES
16.4 ± 1.1	15.9 ± 1.1	15.4 ± 1.1	15 ± 1	14.5 ± 1	17.1 ± 1.2	C=CCCCCC [1-heptene] + CCCC[n+]1cccc(C)c1.O=S(=O)([O-])C(F)(F)F
4.18 ± 0.28	4.28 ± 0.29	4.37 ± 0.3	4.46 ± 0.3	4.53 ± 0.31	4.09 ± 0.28	C#CCCCCC [1-heptyne] + CCCC[n+]1cccc(C)c1.O=S(=O)([O-])C(F)(F)F
2.94 ± 0.2	3.03 ± 0.21	3.11 ± 0.21	3.19 ± 0.22	3.27 ± 0.22	2.86 ± 0.19	C#CCCCC [1-hexyne] + CCCC[n+]1cccc(C)c1.O=S(=O)([O-])C(F)(F)F
5.88 ± 0.4	5.97 ± 0.41	6.05 ± 0.41	6.14 ± 0.42	6.23 ± 0.42		C#CCCCCCC [1-octyne] + CCCC[n+]1cccc(C)c1.O=S(=O)([O-])C(F)(F)F
8.44 ± 0.58	8.23 ± 0.56	8.03 ± 0.55	7.88 ± 0.54	7.73 ± 0.53	8.67 ± 0.59	C=CCCC [1-pentene] + CCCC[n+]1cccc(C)c1.O=S(=O)([O-])C(F)(F)F
4.22 ± 0.29	4.23 ± 0.29	4.23 ± 0.29	4.24 ± 0.29	4.24 ± 0.29	4.21 ± 0.29	COC(C)(C)C [2-methoxy-2-methylpropane] + CCCC[n+]1cccc(C)c1.O=S(=O)([O-])C(F)(F)F
1.42 ± 0.09	1.34 ± 0.09	1.26 ± 0.08	1.2 ± 0.08	1.15 ± 0.07		CCCCO [butan-1-ol] + CCCC[n+]1cccc(C)c1.O=S(=O)([O-])C(F)(F)F
94.9 ± 6.5	87.6 ± 6	80.2 ± 5.5	74.6 ± 5.1	69.5 ± 4.8	104 ± 7.2	CCCCCCCCCC [decane] + CCCC[n+]1cccc(C)c1.O=S(=O)([O-])C(F)(F)F
10.1 ± 0.7	9.86 ± 0.67	9.6 ± 0.65	9.35 ± 0.64	9.14 ± 0.62	10.4 ± 0.7	CCCOCCC [dipropyl ether] + CCCC[n+]1cccc(C)c1.O=S(=O)([O-])C(F)(F)F
0.907 ± 0.058	0.867 ± 0.055	0.827 ± 0.053	0.79 ± 0.051	0.759 ± 0.05		CCO [ethanol] + CCCC[n+]1cccc(C)c1.O=S(=O)([O-])C(F)(F)F
2.76 ± 0.19	2.78 ± 0.19	2.8 ± 0.19	2.81 ± 0.19	2.83 ± 0.19		CCc1ccccc1 [ethylbenzene] + CCCC[n+]1cccc(C)c1.O=S(=O)([O-])C(F)(F)F
32.7 ± 2.2	30.8 ± 2.1	29 ± 2	27.5 ± 1.9	26.1 ± 1.8	35.1 ± 2.4	CCCCCCC [heptane] + CCCC[n+]1cccc(C)c1.O=S(=O)([O-])C(F)(F)F
11.5 ± 0.8	11.2 ± 0.8	10.9 ± 0.7	10.6 ± 0.7	10.3 ± 0.7	11.9 ± 0.8	C=CCCCC [hex-1-ene] + CCCC[n+]1cccc(C)c1.O=S(=O)([O-])C(F)(F)F
23.2 ± 1.6	22.1 ± 1.5	20.9 ± 1.4	20 ± 1.4	19.1 ± 1.3	24.7 ± 1.7	CCCCCC [hexane] + CCCC[n+]1cccc(C)c1.O=S(=O)([O-])C(F)(F)F
65.9 ± 4.5	61.1 ± 4.2	56.8 ± 3.9	53.2 ± 3.6	49.9 ± 3.4	71.7 ± 4.9	CCCCCCCCC [nonane] + CCCC[n+]1cccc(C)c1.O=S(=O)([O-])C(F)(F)F
23.2 ± 1.6	22.3 ± 1.5	21.5 ± 1.5	20.8 ± 1.4	20 ± 1.4	24.3 ± 1.7	C=CCCCCCC [oct-1-ene] + CCCC[n+]1cccc(C)c1.O=S(=O)([O-])C(F)(F)F
46.3 ± 3.2	43.4 ± 3	40.7 ± 2.8	38.5 ± 2.6	36.2 ± 2.5	49.6 ± 3.4	CCCCCCCC [octane] + CCCC[n+]1cccc(C)c1.O=S(=O)([O-])C(F)(F)F
1.35 ± 0.09	1.36 ± 0.09	1.38 ± 0.09	1.39 ± 0.09	1.41 ± 0.09		CCCC(C)=O [pentan-2-one] + CCCC[n+]1cccc(C)c1.O=S(=O)([O-])C(F)(F)F
1.39 ± 0.09	1.42 ± 0.09	1.44 ± 0.09	1.46 ± 0.1	1.48 ± 0.1		CCC(=O)CC [pentan-3-one] + CCCC[n+]1cccc(C)c1.O=S(=O)([O-])C(F)(F)F
17.3 ± 1.2	16.4 ± 1.1	15.5 ± 1.1	14.8 ± 1	14.1 ± 1	18.5 ± 1.3	CCCCC [pentane] + CCCC[n+]1cccc(C)c1.O=S(=O)([O-])C(F)(F)F
1.11 ± 0.07	1.06 ± 0.07	1 ± 0.06	0.958 ± 0.06	0.919 ± 0.058		CCCO [propan-1-ol] + CCCC[n+]1cccc(C)c1.O=S(=O)([O-])C(F)(F)F
